From patent US20260250320A1, “LIPIDATED PEPTIDE INHIBITORS OF INTERLEUKIN-23 RECEPTOR” (Janssen Pharmaceutica NV, priority 2023, published 2026) come the findings set out here.

Experiment [1] deals with IL-23-stimulated phosphorylated STAT3 in peripheral blood mononuclear cells (PBMCs). In words: PBMC pSTAT3 Assay. It counts as cell-based. The note with it: PBMCs from healthy donors; 30 min preincubation with peptide; IL-23 5 ng/mL for 30 min; phospho-STAT3 by MSD. The method, boiled down:
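Healthy-donor PBMCs expanded 4 days on anti-CD3 with 100 ng/mL IL-1β, starved ~4 h in RPMI-0.1% BSA, preincubated 30 min with peptide, then stimulated 30 min at 37 °C with 5 ng/mL IL-23. Lysate pSTAT3 measured by MSD phospho-STAT panel; IC50 derived.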

The target of the next experiment is T1, IL-23R (Homo sapiens, UniProt Q5VWK5).
T1 construct: HEK293 cells containing IL-23R, IL-12Rβ1 and a firefly luciferase reporter gene driven by a STAT-inducible promoter (Promega); host or cells: HEK293
T1 sequence (Q5VWK5 24-629): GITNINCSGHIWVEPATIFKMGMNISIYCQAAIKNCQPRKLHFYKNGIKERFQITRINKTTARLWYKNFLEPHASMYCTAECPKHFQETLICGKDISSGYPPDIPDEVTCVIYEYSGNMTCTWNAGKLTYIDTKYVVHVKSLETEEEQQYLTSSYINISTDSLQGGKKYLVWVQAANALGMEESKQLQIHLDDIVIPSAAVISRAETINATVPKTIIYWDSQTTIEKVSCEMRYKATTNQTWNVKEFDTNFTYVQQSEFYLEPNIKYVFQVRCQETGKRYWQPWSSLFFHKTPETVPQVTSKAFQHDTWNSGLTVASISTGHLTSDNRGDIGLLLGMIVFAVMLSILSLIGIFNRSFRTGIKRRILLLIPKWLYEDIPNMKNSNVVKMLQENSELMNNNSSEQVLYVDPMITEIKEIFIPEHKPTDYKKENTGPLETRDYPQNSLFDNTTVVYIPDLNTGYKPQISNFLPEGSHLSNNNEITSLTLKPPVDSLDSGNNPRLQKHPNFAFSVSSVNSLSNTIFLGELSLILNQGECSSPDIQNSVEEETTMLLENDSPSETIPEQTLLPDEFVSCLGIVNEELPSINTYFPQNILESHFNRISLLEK
Briefly: IL23R Reporter Assay. The settings on record: HEK293 cells containing IL-23R, IL-12Rβ1 and STAT-inducible firefly luciferase reporter; 10 ng/mL IL-23 (EC90); 5 h. Type of experiment: cell-based. In a few lines: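 HEK293 cells carrying IL-23R, IL-12Rβ1 and a STAT-driven firefly luciferase reporter (4000 cells/well) received compound, then 10 ng/mL IL-23 solution (EC90), and were incubated for 5 h at 37° C. BioGlo luminescence was normalised to IL-23 alone (0%) and 30 μM control inhibitor (100%). IC50 came from a 4-parameter Hill fit.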
Background: In a reporter assay the amount or activity of a reporter protein is the signal.

*1 amine or outer side, *2 acyl side, *3 side chain or, on linkers, in order; H or OH if unused. Where a SMILES comes first, the peptide text is derived from it. Bridges are numbered along the chain shown (N, C = ends). Side-chain parts run from the residue outwards. [ ]: non-standard residue; d: D form. The star is where a group is joined. ξ: configuration not given here. X33 = C[N+](C)(CCNC(=O)CCOCCOCCOCCOCCOCCOCCOCCOCCOCCOCCOCCOCCNC(=O)CC[C@H](CC(=O)CCCCCCCCCCCCCCCCC(=O)O)C(=O)O)CC(=O)*; Me3N+(CH2)2O(CH2)2O(CH2)2CO = C[N+](C)(C)CCOCCOCCC(=O)*; Trp(7-Me) = Cc1cccc2c(C[C@H](N)C(=O)O)c[nH]c12; C18 diacid = O=C(O)CCCCCCCCCCCCCCCCC(=O)*; X6 = CN(CC[C@H](N[*:1])C(=O)[*:2])[*:3]; γGlu = O=C(O)[C@H](CCC(=O)[*:2])N[*:1]; 2Nal = N[C@@H](Cc1ccc2ccccc2c1)C(=O)O; AEF = NCCOc1ccc(C[C@H](N)C(=O)O)cc1; X2 = C[N+](C)(C)C[C@@H](CC(=O)O)N*; 3Pal = N[C@@H](Cc1cccnc1)C(=O)O; Lys(Me) = CNCCCC[C@H](N)C(=O)O; Pen = CC(C)(S)[C@H](N)C(=O)O; Suc = O=C(CCC(=O)[*:2])[*:1]; ξ3Pal = NC(Cc1cccnc1)C(=O)O; Ac6c = NC1(C(=O)O)CCCCC1; Thp = NC1(C(=O)O)CCOCC1; AEEA = NCCOCCOCC(=O)O; Sar = CNCC(=O)O A value given as a limit tells only on which side of the number the result lay.

In the case of `Cc1cccc2c(C[C@@H]3NC(=O)[C@H]([C@@H](C)O)NC(=O)[C@H](CC(=O)N(C)C)NC(=O)[C@@H](NC(=O)COCCOCCNC(=O)COCCOCCNC(=O)CC[C@H](NC(=O)CCCCCCCCCCCCCCCCC(=O)O)C(=O)O)C(C)(C)SSC[C@@H](C(=O)N[C@@H](Cc4ccc(OCCN)cc4)C(=O)N[C@@H](Cc4ccc5ccccc5c4)C(=O)NC4(C(=O)N[C@@H](CCN(C)C(=O)CCC(=O)N[C@H](CC(=O)O)C[N+](C)(C)C)C(=O)N[C@@H](CC(N)=O)C(=O)N[C@@H](Cc5cccnc5)C(=O)N(C)CC(=O)N(C)C)CCOCC4)NC(=O)[C@H](CCN(C)C(=O)CCC(=O)N[C@H](CC(=O)O)C[N+](C)(C)C)NC3=O)c[nH]c12` [compound 138, HOC18gEPEG2PEG2CO-Pen(3)-N(N(Me)2)-T-7MeW-Dab(NMecarn)-Pen(3)-AEF-2Nal-THP-Dab(NMecarn)-N-3Pya-Sar-CON(Me)2] ({C18 diacid-γGlu-AEEA-AEEA}-[Pen]D(NMe2)T[Trp(7-Me)][X6]([Suc-X2])C[AEF][2Nal][Thp][X6]([Suc-X2])N[3Pal][Sar]-NMe2; disulfide 1-6), the results for the IC50 (in experiment [1]; at IL-23R) were below 0.5 nM and below 50 nM, respectively.

Turning to `CC(=O)N(C)CCCC[C@H](CC(=O)C1(NC(=O)[C@H](Cc2ccc3ccccc3c2)NC(=O)[C@H](Cc2ccc(OCCNC(=O)C[N+](C)(C)CCNC(=O)CCOCCOCCOCCOCCOCCOCCOCCOCCOCCOCCOCCOCCNC(=O)CC[C@H](NC(=O)CCCCCCCCCCCCCCCCCCC(=O)O)C(=O)O)cc2)NC(=O)[C@H]2NC(=O)[C@H](CCCCN(C)C(C)=O)NC(=O)[C@H](Cc3c[nH]c4c(C)cccc34)NC(=O)[C@H]([C@@H](C)O)NC(=O)[C@H](CC(=O)N(C)C)NC(=O)[C@@H](NC(=O)CCOCCOCC[N+](C)(C)C)C(C)(C)SSC2(C)C)CCCCC1)C(=O)C[C@@H](CC(N)=O)C(=O)C[C@@H](Cc1cccnc1)C(=O)N(C)CC(=O)N(C)C` [compound 139, cPEG3aCO-Pen(3)-N(N(Me)2)-T-7MeW-K(NMeAc)-Pen(3)-AEF(SP6PEG12gEC20OH)-2Nal-THP-K(NMeAc)-N-3Pya-Sar-CON(Me)2], the IC50 in experiment [1] is below 0.5 nM; on IL-23R, below 50 nM.

In the case of `CC(=O)N(C)CCCC[C@@H]1NC(=O)[C@H](CC2=CCc3c(C)cccc32)NC(=O)[C@H]([C@@H](C)O)NC(=O)[C@H](CC(=O)N(C)C)NC(=O)[C@@H](NC(=O)CCOCCOCC[N+](C)(C)C)C(C)(C)SSC(C)(C)C(CN[C@@H](Cc2ccc(OCCNC(=O)C[N+](C)(C)CCNC(=O)CCOCCOCCOCCOCCOCCOCCNC(=O)CC[C@H](CC(=O)CCCCCCCCCCCCCCCCCCC(=O)O)C(=O)O)cc2)C(=O)N[C@@H](Cc2ccc3ccccc3c2)C(=O)NC2(C(=O)N[C@@H](CCCCN(C)C(C)=O)C(=O)N[C@@H](CC(N)=O)C(=O)N[C@@H](Cc3cccnc3)C(C)N(C)CC(=O)N(C)C)CCOCC2)NC1=O` (stereo partly drawn) [compound 140, cPEG3aCO-Pen(3)-N(N(Me)2)-T-7MeW-K(NMeAc)-Pen(3)-AEF(SP6PEG6gEC20OH)-2Nal-THP-K(NMeAc)-N-3Pya-Sar-CON(Me)2], the figures for the IC50 (in experiment [1]; against IL-23R) were below 0.5 nM and 50 to 500 nM, respectively.

As for `CC(=O)N(C)CCCC[C@@H]1NC(=O)[C@H](Cc2c[nH]c3c(C)cccc23)NC(=O)[C@H]([C@@H](C)O)NC(=O)[C@H](CC(=O)N(C)C)NC(=O)[C@@H](NC(=O)CCOCCOCC[N+](C)(C)C)C(C)(C)SSC(C)(C)[C@@H](C(=O)N[C@@H](Cc2ccc(OCCNC(=O)C[N+](C)(C)CCNC(=O)CCOCCOCCOCCOCCOCCOCCOCCOCCOCCOCCOCCOCCNC(=O)CC[C@H](CC(=O)CCCCCCCCCCCCCCCCC(=O)O)C(=O)O)cc2)C(=O)N[C@@H](Cc2ccc3ccccc3c2)C(=O)NC2(C(=O)N[C@@H](CCCCN(C)C(C)=O)C(=O)N[C@@H](CC(N)=O)C(=O)NC(Cc3cccnc3)C(=O)N(C)CC(=O)N(C)C)CCCCC2)NC1=O` (stereo partly drawn) [compound 141, cPEG3aCO-Pen(3)-N(N(Me)2)-T-7MeW-K(NMeAc)-Pen(3)-AEF(SP6PEG12gEC18OH)-2Nal-THP-K(NMeAc)-N-3Pya-Sar-CON(Me)2] ({Me3N+(CH2)2O(CH2)2O(CH2)2CO}-[Pen]D(NMe2)T[Trp(7-Me)][Lys(Me)](Ac)[Pen][AEF](X33)[2Nal][Ac6c][Lys(Me)](Ac)N[ξ3Pal][Sar]-NMe2; disulfide 1-6), the IC50 is below 0.5 nM in experiment [1] and below 50 nM against IL-23R.

The IC50 is the concentration that gives 50% inhibition. A low value points to inhibition by little substance.
